Measurements taken from US20250296971A1, “GASTRIC INHIBITORY PEPTIDE RECEPTOR LIGANDS” (priority 2021, published 2025).
*1 amine or outer side, *2 acyl side, *3 side chain or, on linkers, in order; H or OH if unused. Where a SMILES comes first, the peptide text is derived from it. Bridges are numbered along the chain shown (N, C = ends). [ ]: non-standard residue; d: D form. The star is where a group is joined. NH(1-deoxy-D-glucityl) = OC[C@@H](O)[C@@H](O)[C@H](O)[C@@H](O)CN*; DOTA = O=C(O)CN1CCN(CC(=O)O)CCN(CC(=O)*)CCN(CC(=O)O)CC1; Trp(5-Cl) = N[C@@H](Cc1c[nH]c2ccc(Cl)cc12)C(=O)O; Pyridine(2,6-diCH2) = c1cc(C[*:1])nc(C[*:2])c1; Pro(4R-NH2) = N[C@H]1CN[C@H](C(=O)O)C1; Glutaryl = O=C(CCCC(=O)[*:2])[*:1]; X1 = O=C(CN1CCC(N[*:1])CC1)[*:2]; Api = NC1(C(=O)O)CCNCC1

Columns and labels:
[1] = Plasma stability assay, human plasma; assay type: in vitro ADME; settings: 37° C., % intact compound remaining after 4 h or 24 h
Experimental: In order to determine the stability of selected compounds of the invention in human and mouse plasma, a plasma stability assay was carried out. Such plasma stability assay measures degradation of compounds of the present invention in blood plasma. This is an important characteristic of a compound as compounds, with the exception of pro-drugs, which rapidly degrade in plasma, generally show poor in vivo efficacy. […] The stability is sufficient for the diagnostic, therapeutic and theragnostic use of these compounds according to the present invention.
The plasma stability samples were prepared by spiking 50 μL plasma aliquots (all K2EDTA) with 1 μL of a 0.5 mM compound stock solution in DMS0. After vortexing the samples were incubated in a Thermomixer at 37° C. for 0, 4 and 24 hours. After incubation the samples were stored on ice until further treatment. All samples were prepared in duplicates.
A suitable internal standard was added to each sample (1 μL of a 0.5 mM stock solution in DMSO). Protein precipitation was performed by addition of 250 μL of acetonitrile containing 1% trifluoroacetic acid. After incubation at room temperature for 30 min the precipitate was separated by centrifugation and 150 μL of the supernatant was diluted with 150 μL of 1% aqueous formic acid.
Additionally, recovery was determined by spiking a pure plasma sample that only contained the internal standard after treatment with a certain amount of the compound.
Carry-over was evaluated by analysis of a blank sample (20% acetonitrile) after the highest calibration sample.

[2] = Plasma stability assay, mouse plasma; assay type: in vitro ADME; settings: 37° C., % intact compound remaining after 4 h or 24 h
Procedure, shortened: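 K2EDTA mouse or human plasma spiked with compound from 0.5 mM DMSO stock, incubated at 37 °C for 0, 4 and 24 h in duplicate. Proteins precipitated with acetonitrile/1% TFA, internal standard added; recovery and carry-over evaluated.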

Mouse GIPR = target: T1, Mouse GIPR (Mus musculus, UniProt Q0P543); test: Radioligand binding assay, mouse GIPR; settings: 111In-labeled compound, 6 h, 37° C., read-out: pKD Category (converted)
T1 construct: host or cells: CHO-VGT
T1 sequence (Q0P543 19-460): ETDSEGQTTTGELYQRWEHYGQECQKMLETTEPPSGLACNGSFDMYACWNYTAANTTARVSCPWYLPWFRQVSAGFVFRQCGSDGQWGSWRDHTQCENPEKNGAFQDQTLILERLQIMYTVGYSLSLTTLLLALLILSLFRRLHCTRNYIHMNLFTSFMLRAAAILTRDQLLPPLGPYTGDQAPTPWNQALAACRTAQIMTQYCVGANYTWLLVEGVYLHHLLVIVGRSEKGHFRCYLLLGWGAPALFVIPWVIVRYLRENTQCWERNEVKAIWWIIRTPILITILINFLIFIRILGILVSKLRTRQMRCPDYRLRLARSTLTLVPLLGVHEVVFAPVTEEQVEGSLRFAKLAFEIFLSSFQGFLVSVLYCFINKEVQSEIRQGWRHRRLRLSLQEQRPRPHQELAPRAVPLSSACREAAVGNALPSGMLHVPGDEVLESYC
Experimental: (§1) In order to assess the affinity of ^111In-labeled compounds to the GIPR receptor of different species, a radioligand binding assay was established.
(§2) CHO-K1 cells (GenScript Biotech, #M00486) were stably transfected with the human GIPR. CHO-K1-hGIPR cells were cultured in Ham's F12 medium (Sigma-Aldrich, #N4888) including 10% fetal calf serum (FCS), 2 mM L-glutamine, 100 U/mL penicillin, 100 µg/mL streptomycin, 200 µg/mL Zeocin and 100 µg/mL HygromycinB. To evaluate the species cross-reactivity, CHO-VGT cells were transfected with the human, dog, rat and mouse GIPR (Inscreenex GmbH), which were cultured in DMEM/Ham's F12 Medium 1:1 (Biochrom, #F485) including 5% fetal calf serum (FCS), 2 mM L-glutamine, 100 U/mL penicillin and 100 μg/mL streptomycin. Cells were detached with Accutase (Biolegend, #BLD-423201) and counted using a particle counter (CASY Model TT; Schärfe Systems). Cell concentrations were adjusted to 3×10^5 mL^−1, and 1.000 μL of the suspension per well were dispensed into flat-clear-bottom 24 well plates.
(§3) Approximately 24 hours after re-seeding, the medium was aspirated and the cells were washed once with 700 μL assay medium (Ham's medium with 20 mM HEPES). […]
(§4) At the end of incubation time, cells were washed and subsequently harvested in 300 μL RIPA buffer containing PIC. Radioactivity of the cell lysate of each well was counted using a gamma counter (Perkin Elmer). […]

Dog GIPR = target: T2, Dog GIPR (Canis lupus familiaris, UniProt A0A8I3MPG1); test: Radioligand binding assay, dog GIPR; settings: 111In-labeled compound, 6 h, 37° C., read-out: pKD Category (converted)
T2 construct: host or cells: CHO-VGT
T2 sequence (A0A8I3MPG1 24-449): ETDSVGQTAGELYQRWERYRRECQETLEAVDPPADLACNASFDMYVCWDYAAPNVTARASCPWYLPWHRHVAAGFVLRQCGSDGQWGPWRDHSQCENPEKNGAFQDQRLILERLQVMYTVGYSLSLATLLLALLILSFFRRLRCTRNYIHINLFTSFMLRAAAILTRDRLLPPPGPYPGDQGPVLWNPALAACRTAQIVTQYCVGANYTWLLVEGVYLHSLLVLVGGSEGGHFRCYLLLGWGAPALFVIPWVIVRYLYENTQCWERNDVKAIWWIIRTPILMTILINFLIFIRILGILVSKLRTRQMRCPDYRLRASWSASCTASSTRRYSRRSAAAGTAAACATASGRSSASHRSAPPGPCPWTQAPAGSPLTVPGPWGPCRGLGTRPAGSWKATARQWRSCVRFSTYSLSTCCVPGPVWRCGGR
Experimental: as §1, §2, §3, §4

[3] = target: Recombinant soluble human NEP (Homo sapiens, UniProt P08473); test: Proteolytic stability assay against NEP; settings: NEP 100 ng/mL, compound 10 μM, 37° C., % intact compound remaining
Recombinant soluble human NEP, sequence (P08473 52-750 limits assumed): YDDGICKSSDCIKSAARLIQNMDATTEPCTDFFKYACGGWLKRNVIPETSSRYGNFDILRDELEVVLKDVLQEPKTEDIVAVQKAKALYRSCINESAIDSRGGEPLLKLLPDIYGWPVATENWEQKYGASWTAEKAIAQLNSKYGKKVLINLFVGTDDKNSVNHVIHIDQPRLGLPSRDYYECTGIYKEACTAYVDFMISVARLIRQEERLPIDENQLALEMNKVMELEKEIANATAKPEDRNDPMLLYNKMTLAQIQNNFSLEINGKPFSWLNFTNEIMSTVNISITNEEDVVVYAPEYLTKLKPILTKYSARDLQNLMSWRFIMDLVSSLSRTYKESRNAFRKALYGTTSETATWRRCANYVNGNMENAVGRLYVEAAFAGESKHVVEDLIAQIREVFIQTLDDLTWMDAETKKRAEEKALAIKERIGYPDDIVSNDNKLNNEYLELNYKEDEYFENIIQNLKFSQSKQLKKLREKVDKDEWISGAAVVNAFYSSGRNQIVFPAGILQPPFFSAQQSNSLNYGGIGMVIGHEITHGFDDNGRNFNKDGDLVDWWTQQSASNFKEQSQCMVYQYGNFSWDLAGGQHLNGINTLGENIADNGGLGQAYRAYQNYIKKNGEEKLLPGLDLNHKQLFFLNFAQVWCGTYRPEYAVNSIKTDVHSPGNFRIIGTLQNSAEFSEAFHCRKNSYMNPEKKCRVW

Human plasma stability category [1]: A (>80% intact after 24 hours)
Mouse plasma stability category [2]: A (>80% intact after 24 hours)
Kd (Mouse GIPR): > 1 nM
Kd (Dog GIPR): < 0.316 nM
NEP stability category [3]: A (>80% intact after 24 hours)
Structure (SMILES): CC[C@H](C)[C@@H]1NC(=O)[C@H](CC(C)C)NC(=O)C2(CCN(C(=O)CN3CCN(CC(=O)O)CCN(CC(=O)O)CCN(CC(=O)O)CC3)CC2)NC(=O)[C@@H](NC(=O)[C@@H](CC(C)C)NC(=O)[C@H](CCC(=O)O)NC(=O)[C@@H]2C[C@@H](N)CN2C(=O)[C@H](Cc2c[nH]c3ccc(Cl)cc23)NC(=O)[C@H](Cc2c[nH]c3ccccc23)NC(=O)[C@H](CC(=O)O)NC(=O)CCCC(=O)NC[C@H](O)[C@@H](O)[C@H](O)[C@H](O)CO)CSCc2cccc(n2)CSC[C@@H](C(=O)NC2CCN(CC(=O)N[C@H](CCC(=O)NC[C@H](O)[C@@H](O)[C@H](O)[C@H](O)CO)C(N)=O)CC2)NC1=O [GIP-001, AGLU-Glutar-Asp-Trp-5Clw-Tap-Glu-leu-[Cys(2Lut)-Apc(DOTA)-Leu-Ile-Cys]-APAc-glu(AGLU)-NH2] ({NH(1-deoxy-D-glucityl)-Glutaryl}-DW[Trp(5-Cl)][Pro(4R-NH2)]E[dL]C[Api](DOTA)LIC[X1][dE](NH(1-deoxy-D-glucityl))-NH2; linker 7-11 via Pyridine(2,6-diCH2))
